Measurements published in patent publication US20240174696A1, “2,8-DIAZASPIRO[4.5]DECANE COMPOUNDS” (Genentech, Inc., priority 2021, published 2024).

Tests used:
[1] = target: Human LATS2 catalytic domain (Homo sapiens (Human), UniProt Q9NRM7); assay: LATS2 High ATP HTRF Assay; assay type: biochemical; details: no asterisk: LATS2 High ATP HTRF Assay, 5000 μM ATP, 0.05 nM LATS2
Description: Human LATS2 catalytic domain which contains the amino acids G553-V1088 (accession NP_055387) was purified in-house. The LATS2 catalytic domain was co-purified with Mob1b (accession NP_775739). The LATS2 biochemical HTRF assay was performed using the HTRF KinEASE-STK S1 Kit (Cisbio, Cat #62ST1PEC), following the protocol from the manufacturer. Compounds were dispensed by the Echo Liquid Handler (Labcyte) into a white 384-well plate (PerkinElmer, Cat #6008289). 3 uL of 2×LATS2 enzyme solution was added to the compounds, following by a 10 minute incubation at room temperature. Then, 2×ATP and STK S1 peptide solution was added to initiate the one hour enzyme reaction at room temperature. The final condition of the reaction was 0.2 nM LATS2, 50 μM ATP, 0.5 μM STK S1 peptide in 50 mM HEPES pH7.2, 10 mM MgCl2, 0.1% BGG, 0.005% Brij-35, 1 mM DTT. The reaction was quenched by adding 6 uL of the detection mixture which contained Streptavidin XL665 and STK Antibody-Cryptate (Cisbio), incubate for 1 hour at room temperature. The HTRF (665 nm/620 nm) signal was read on the Envision plater reader (PerkinElmer). The IC50 values were determined by fitting the % inhibition with a nonlinear four-parameter logistical equation. The Ki values were calculated using the Cheng-Prusoff equation for a competitive inhibitor, IC50═Ki (1+S/Km)+M [E] with ATP Km for LATS2=105 μM.
The LATS2 high ATP HTRF assay was performed using the same protocol as the Standard LATS2 HTRF assay. The final condition of the reaction was 0.05 nM LATS2, 5000 μM ATP, 0.5 μM STK S1 peptide in 50 mM HEPES pH7.2, 10 mM MgCl2, 0.1% BGG, 0.005% Brij-35, 1 mM DTT and the 2 hours enzyme reaction at room temperature.

[2] = test system: TAZ nuclear translocation in SW1990 cells; assay: TAZ Nuclear Translocation Assay; assay type: cell-based; details: Homo sapiens, 4 hours
Description: The SW1990 cells (ATCC, CRL2172) were seeded at 5000 cells/well by adding 30 μL/well of cells in RPMI1640, 10% FBS, 2 mM glutamine culture media to a 384-well plate (Greiner 781091). The cells were incubated overnight at 37° C. Next day, test compounds were directly added to the cells using the Echo Liquid Handler (Labcyte), incubate at 37° C. for 4 hours. The cells were fixed with 4% paraformaldehyde and incubate for 20 minutes at room temperature. After washing three times with 100 μL PBS, 0.5% Triton X-100 was added to permeabilize the cells, incubate at room temperature for 5 minutes, following by washing the cells three times with PBS. 3% BSA was added to the cells, incubate for one hour at room temperature, following by washing three times with PBS. 50 μL of 1:750 diluted rabbit Anti-TAZ (Cell signaling D316D) in 3% BSA was added to the cells, incubate at 4° C. overnight. Next day, after washing the cells three times with PBS, 50 μL of 1:1250 diluted donkey anti-Rabbit, Alexa Fluor 488 (Invitrogen A21206) and 1:6250 diluted Hoechst 33342 (Molecular Probes H-21492) in 3% BSA was added to the cells, incubate at room temperature for one hour. The cells were washed three times with PBS, then image with the CellInsight CX7 High-Content Imager. The ratio of nuclear mean fluorescence intensity and cytoplasmic ring region mean fluorescence intensity was calculated. The % inhibition was normalized using DMSO as 0% inhibition and an inhibitor control as 100% inhibition. The EC50 values were calculated by fitting the % inhibition with a nonlinear four-parameter logistical equation.

Chain of Human LATS2 catalytic domain (Q9NRM7 553-1088): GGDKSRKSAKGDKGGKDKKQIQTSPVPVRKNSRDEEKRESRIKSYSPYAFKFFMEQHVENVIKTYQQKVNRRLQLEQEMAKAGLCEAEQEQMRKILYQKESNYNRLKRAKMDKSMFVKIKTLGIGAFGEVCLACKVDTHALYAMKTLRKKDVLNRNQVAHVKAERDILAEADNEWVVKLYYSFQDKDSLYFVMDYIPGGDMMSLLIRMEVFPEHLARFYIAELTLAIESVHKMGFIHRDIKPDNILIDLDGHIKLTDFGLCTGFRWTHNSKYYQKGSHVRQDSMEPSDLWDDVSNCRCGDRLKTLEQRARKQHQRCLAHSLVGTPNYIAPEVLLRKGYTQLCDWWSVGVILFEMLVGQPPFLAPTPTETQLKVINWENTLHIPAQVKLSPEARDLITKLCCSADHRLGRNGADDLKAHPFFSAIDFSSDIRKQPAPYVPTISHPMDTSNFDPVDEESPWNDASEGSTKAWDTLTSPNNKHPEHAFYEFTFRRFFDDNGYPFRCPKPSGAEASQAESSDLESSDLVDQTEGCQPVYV
Chain of Human LATS2 catalytic domain (Q7L9L4 whole entry partner, the tested form may be a part): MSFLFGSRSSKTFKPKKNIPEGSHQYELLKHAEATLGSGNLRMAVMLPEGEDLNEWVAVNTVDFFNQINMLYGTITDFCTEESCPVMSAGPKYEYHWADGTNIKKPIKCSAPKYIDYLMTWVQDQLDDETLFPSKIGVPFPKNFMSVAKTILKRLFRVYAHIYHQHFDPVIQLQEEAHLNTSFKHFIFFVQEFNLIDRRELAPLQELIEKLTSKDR

Row | Ki [1] [nM] | EC50 [2] [nM] | SMILES
1 | 0.39 | 2500 | O[C@H]1COC[C@@H]1N1CCC2(CCN(c3nc(-c4ccncc4)nc4cnccc34)CC2)C1 (single isomer, unassigned) [Compound 177]
2 | 0.1 | 740 | O[C@@H]1CC[C@H]1N1CCC2(CCN(c3nc(-c4ccncc4)nc4cnccc34)CC2)C1 (single isomer, unassigned) [Compound 179]
3 | 1.38 | 1300 | O[C@@H]1CC[C@@H]1N1CCC2(CCN(c3nc(-c4ccncc4)nc4cnccc34)CC2)C1 (single isomer, unassigned) [Compound 180]
4 | 1.87 | 1900 | O[C@H]1CC[C@H]1N1CCC2(CCN(c3nc(-c4ccncc4)nc4cnccc34)CC2)C1 (single isomer, unassigned) [Compound 181]
5 | 0.037 | 1400 | Cc1n[nH]cc1-c1nc(N2CCC3(CC2)CCN([C@@H]2CCC[C@H]2O)C3)c2ccncc2n1 (single isomer, unassigned) [Compound 184]
6 | 0.047 | 860 | Cc1[nH]ncc1-c1nc(N2CCC3(CC2)CCN([C@H]2CCC[C@@H]2O)C3)c2ccncc2n1 (single isomer, unassigned) [Compound 185]
7 | 0.32 | 230 | COC[C@H]1CC2(CCN(c3nc(-c4ccncc4)nc4cnccc34)CC2)CN1 (single isomer, unassigned) [Example 221]
8 | 0.1 | 340 | COC[C@@H]1CC2(CCN(c3nc(-c4ccncc4)nc4cnccc34)CC2)CN1 (single isomer, unassigned) [Example 222]
9 | 0.067 | 2700 | Cc1[nH]ncc1-c1nc(N2CCC3(CC2)CCN([C@@H]2CC[C@H]2O)C3)c2ccncc2n1 (single isomer, unassigned) [Example 228]
10 | 0.063 | 2100 | Cc1[nH]ncc1-c1nc(N2CCC3(CC2)CCN([C@H]2CC[C@@H]2O)C3)c2ccncc2n1 (single isomer, unassigned) [Example 229]
11 | 0.043 | 1000 | Cc1[nH]ncc1-c1nc(N2CCC3(CC2)CCN([C@@H]2CC[C@@H]2O)C3)c2ccncc2n1 (single isomer, unassigned) [Example 230]
12 | 0.11 | 900 | Cc1[nH]ncc1-c1nc(N2CCC3(CC2)CCN([C@H]2CC[C@H]2O)C3)c2ccncc2n1 (single isomer, unassigned) [Example 231]
13 | 0.043 | 3800 | NS(=O)(=O)CCN1CCC2(CCN(c3nc(-c4ccncc4)nc4cnccc34)CC2)C1 [Compound 109, 2-(8-(2-(pyridin-4-yl)pyrido[3,4-d]pyrimidin-4-yl)-2,8-diazaspiro[4.5]decan-2-yl)ethanesulfonamide]
14 | 0.41 | 1600 | CC(C)N1CCC2(CCN(c3nc(-c4ccncc4)nc4cnccc34)CC2)C1 [Compound 117, 4-(2-isopropyl-2,8-diazaspiro[4.5]decan-8-yl)-2-(pyridin-4-yl)pyrido[3,4-d]pyrimidine]
15 | 0.03 | 430 | c1cc(-c2nc(N3CCC4(CC3)CCN(C3CCCCC3)C4)c3ccncc3n2)ccn1 [Compound 119, 4-(2-cyclohexyl-2,8-diazaspiro[4.5]decan-8-yl)-2-(pyridin-4-yl)pyrido[3,4-d]pyrimidine]
16 | 1.09 | 2100 | CC(=O)NCCN1CCC2(CCN(c3nc(-c4ccncc4)nc4cnccc34)CC2)C1 [Compound 123, N-(2-(8-(2-(pyridin-4-yl)pyrido[3,4-d]pyrimidin-4-yl)-2,8-diazaspiro[4.5]decan-2-yl)ethyl)acetamide]
17 | 0.11 | 960 | CS(=O)(=O)NCCN1CCC2(CCN(c3nc(-c4ccncc4)nc4cnccc34)CC2)C1 [Compound 126, N-(2-(8-(2-(pyridin-4-yl)pyrido[3,4-d]pyrimidin-4-yl)-2,8-diazaspiro[4.5]decan-2-yl)ethyl)methanesulfonamide]
18 | 0.45 | 1200 | NC(=O)CN1CCC2(CCN(c3nc(-c4ccncc4)nc4cnccc34)CC2)C1 [Compound 130, 2-(8-(2-(pyridin-4-yl)pyrido[3,4-d]pyrimidin-4-yl)-2,8-diazaspiro[4.5]decan-2-yl)acetamide]
19 | 0.25 | 2400 | NC(=O)CCN1CCC2(CCN(c3nc(-c4ccncc4)nc4cnccc34)CC2)C1 [Compound 132, 3-(8-(2-(pyridin-4-yl)pyrido[3,4-d]pyrimidin-4-yl)-2,8-diazaspiro[4.5]decan-2-yl)propanamide]
20 | 0.063 | 420 | FCCCN1CCC2(CCN(c3nc(-c4ccncc4)nc4cnccc34)CC2)C1 [Compound 135, 4-(2-(3-fluoropropyl)-2,8-diazaspiro[4.5]decan-8-yl)-2-(pyridin-4-yl)pyrido[3,4-d]pyrimidine]
21 | 0.45 | 3200 | N#CCCN1CCC2(CCN(c3nc(-c4ccncc4)nc4cnccc34)CC2)C1 [Compound 136, 3-(8-(2-(pyridin-4-yl)pyrido[3,4-d]pyrimidin-4-yl)-2,8-diazaspiro[4.5]decan-2-yl)propanenitrile]
22 | 3.29 | > 10000 | c1cc(-c2nc(N3CCC4(CCN(c5cn[nH]c5)C4)CC3)c3ccncc3n2)ccn1 [Compound 141, 4-(2-(1H-pyrazol-4-yl)-2,8-diazaspiro[4.5]decan-8-yl)-2-(pyridin-4-yl)pyrido[3,4-d]pyrimidine]
23 | 0.037 | > 10000 | Cc1n[nH]cc1-c1nc(N2CCC3(CCNC3)CC2)c2ccncc2n1 [Compound 142, 2-(3-methyl-1H-pyrazol-4-yl)-4-(2,8-diazaspiro[4.5]decan-8-yl)pyrido[3,4-d]pyrimidine]
24 | 0.088 | 2700 | Cc1n[nH]cc1-c1nc(N2CCC3(CCN(CCO)C3)CC2)c2ccncc2n1 [Compound 146, 2-(8-(2-(3-methyl-1H-pyrazol-4-yl)pyrido[3,4-d]pyrimidin-4-yl)-2,8-diazaspiro[4.5]decan-2-yl)ethan-1-ol]
25 | 0.12 | 560 | Cc1n[nH]cc1-c1nc(N2CCC3(CC2)CCN(C2CCOC2)C3)c2ccncc2n1 (stereo not shown) [Compound 148, 2-(3-methyl-1H-pyrazol-4-yl)-4-(2-(tetrahydrofuran-3-yl)-2,8-diazaspiro[4.5]decan-8-yl)pyrido[3,4-d]pyrimidine]
26 | 0.045 | 2500 | Cc1n[nH]cc1-c1nc(N2CCC3(CCN(CCCO)C3)CC2)c2ccncc2n1 [Compound 149, 3-(8-(2-(3-methyl-1H-pyrazol-4-yl)pyrido[3,4-d]pyrimidin-4-yl)-2,8-diazaspiro[4.5]decan-2-yl)propan-1-ol]
27 | 0.059 | 280 | Cc1n[nH]cc1-c1nc(N2CCC3(CCN(CC(C)(C)O)C3)CC2)c2ccncc2n1 [Compound 150, 2-methyl-1-(8-(2-(3-methyl-1H-pyrazol-4-yl)pyrido[3,4-d]pyrimidin-4-yl)-2,8-diazaspiro[4.5]decan-2-yl)propan-2-o0]
28 | 0.053 | 840 | Cc1n[nH]cc1-c1nc(N2CCC3(CCN(CC4COC4)C3)CC2)c2ccncc2n1 [Compound 152, 2-(3-methyl-1H-pyrazol-4-yl)-4-(2-(oxetan-3-ylmethyl)-2,8-diazaspiro[4.5]decan-8-yl)pyrido[3,4-d]pyrimidine]

Row | SMILES | Ki [1] [nM] | EC50 [2] [nM]
29 | FCCN1CCC2(CCN(c3nc(-c4ccncc4)nc4cnccc34)CC2)C1 [Compound 134, 4-(2-(2-fluoroethyl)-2,8-diazaspiro[4.5]decan-8-yl)-2-(pyridin-4-yl)pyrido[3,4-d]pyrimidine] | 0.72 | 1100
